According to US4442093A, “Method for administering 24,25-dihydroxycholecalciferol to persons suffering from hypercalcemia” (Kureha Kagaku Kogyo Kabushiki Kaisha, priority 1981, dated 1984):

How the values were obtained:
calcium level in serum [1] = experiment: Prevention of hypercalcemia in rats administered with 1-α-(OH)-D3 (Example 4); format: in vivo, male Wistar rats; conditions: 100 µg/kg oral together with 1-α-(OH)-D3 10 µg/kg i.p.
Excerpt: In the present example, it is shown that 24R,25-(OH)2 -D3 has a function of preventing the occurrence of hypercalcemia on rats administered with 1-α-hydroxycholecalciferol (hereinafter referred to as 1-α-(OH)-D3).
Six subgroups of male Wistar rats of 130±30 g of body weight were subjected to the test while dividing the rats into 3 groups, each group consisting of 2 subgroups and each subgroup consisting of 5 animals. To the rats of the first group, after fasting for a night, an ethanolic solution of 1-α-(OH)-D3 was intraperitoneally administered at a dose rate of 10 micrograms of 1-α-(OH)-D3 /kg body weight. To the rats of the second group, a solution of 24R,25-(OH)2 -D3 in the triglyceride ester used in Example 1 was orally administered at a dose rate of 100 micrograms/kg body weight simultaneously with the same administration of 1-α-(OH)-D3 as in the rats of the first group.
The third group of the rats was used for control only with the oral administration of the triglyceride ester used in Example 1.

thymus = experiment: Weight ratio of thymus to body and number of thymocytes in rats given puromycin aminonucleoside (Example 11); format: in vivo, male JCL-Wistar rats; conditions: 100 µg/kg/day oral 12 days with puromycin aminonucleoside 15 mg/kg s.c.
Method: Thirty-two male JCL-Wistar rats in tenth week after birth were used in the present test while keeping them in a room at 21±1° C. and 60±5% RH with solid diet (CE 2) and water taken ad lib.
They were divided equally into 4 groups (one group consisting of 8 animals), their treatments in the test being as follows:
subcutaneous injection of puromycin aminonucleoside as in the second group and oral administration of 24R,25-(OH)2 -D3 dissolved in Panacete 810 once a day at a daily dose rate of 100 micrograms/kg for continuous 12 days.
subcutaneous injection of puromycin aminonucleoside as in the second group and oral administration of 24S,25-(OH)2 -D3 dissolved in Panacete 810 once a day at a daily dose rate of 100 micrograms/kg for continuous 12 days.
After uniformly loosing the thymus in phosphate buffer solution with a forcets and fully pipetting, the mixture was filtered through a stainless steel mesh (Tylar standard #200) and the filtrate containing the thymic cells was stained with Turk's solution. The thus stained specimen was subjected to counting under a microscope.

[2] = tested on: ulcer found on the duodenum; experiment: Healing of acetic acid induced duodenal ulcer (Example 10); format: in vivo, male rats; conditions: 20 µg/kg/day oral, 10 days
Method: Fourty five male rats of body weight of 240 to 260 g were equally divided into three groups, each consisting of 15 animals, and they were subjected to an operation following the method of Okabe et al. (refer to Amer. J. Dig. Dia., 16, 277, 1971), in which under anesthesia by ether, a circular frame made of a metal was placed on the serosa 5 to 7 mm from the pylorus and 0.06 ml of gracial acetic acid was poured onto the round part within the frame and after 30 sec, the acetic liquid was removed with the frame.
The thus operated rats of the first group were administered orally with a suspension of […] of 24R,25-(OH)2 -D3 in Panacete®810 containing 0.2% by weight of ethanol once a day for continuous 10 days from the third day of the operation at a daily dose rate of 20 micrograms of 24R,25-(OH)2 -D3 /kg. To the thus operated rats of the second group (control), only Panacete®810 was orally administered at a daily dose rate of 2 ml/kg for continuous 10 days.
The thus operated rats of the third group were used in the comparative test. Namely, they were treated in the same manner as those of the first group except for administration of gefarnate (3,7-dimethyl-2,6-octadienyl-5,9,13-trimethyl-4,8,12-tetradecatrienoate) at a daily dose rate of 20 microgram/kg body weight in stead of 24R,25-(OH)2 -D3 in the first group.
After finishing the final administration, all the rats were sacrificed by ether and their duodenum was taken out for autopsy. The length and the width of the ulcer found on the duodenum were measured, and their product with a unit of mm^2 was taken and named as the ulcer coefficient. The rate of healing of the ulcer was calculated by the following formula: [formula] wherein C is the ulcer coefficient of control and U is the ulcer coefficient of the group to which the present compound was administered.

calcium level in serum [3] = experiment: Serum calcium in rats made hypercalcemic with Vitamin D3 (Example 1); format: in vivo, male Wistar rats; conditions: for Calcium level in serum: 24R 100 µg/kg oral, calcitonin 4 MRCU/kg s.c.
Method: To 16 subgroups of male Wistar rats of body weight of 150±40 g (one subgroup consisting of 5 rats), a solution of Vitamin D3 dissolved in corn oil at 600 micrograms/ml was orally administered once a day for continuous 4 days at a daily dose rate of 0.5 ml/100 g body weight to prepare the rats artifically suffering from hypercalcemia. After one day's fasting from the final administration of Vitamin D3, the calcium level in the serum of each rat of the first subgroup was on the average 13.5±0.4 mg/dl. The remaining 15 subgroups of the rats were divided into 3 groups each consisting of 5 subgroups and subjected to the following tests.
To the rats of the second group, a solution of porcine calcitonin in a physiological saline solution containing 4% by weight of gelatin was subcutaneously injected at a dose rate of 4 MRCU/kg body weight instead of the solution of 24R,25-(OH)2 -D3 and they were treated as those of the first group.
To the rats of the third group, only the same triglyceride ester as in the first group was orally administered, and they are treated in the same manner as in the first group.
The calcium level of the respective sera of the thus collected blood was determined by OCPC method (Orthocresol Phthalein Complexone method) and shown in Table 1.

calcium level in serum [4] = experiment: Serum calcium in rats made hypercalcemic with parathyroid hormone (Example 3); format: in vivo, male Wistar rats; conditions: 50 µg/kg i.p., PTH-treated
Method: To 4 subgroups of male Wistar rats of 150±40 g of body weight (a subgroup consisting of 5 animals), parathyroid hormone (PTH, Sigma Bovine parathyroid TCA powder, 134 USPU/mg) dissolved in a physiological saline solution containing 4% by weight of gelatine was subcutaneously injected at a dose rate of 150 USPU/100 g body weight, the volume injected being 0.4 ml/100 g body weight to prepare the rats artificially suffering from hypercalcemia.
The rats of the second group, after one hour of the administration of the parathroid hormone, were intraperitoneally administered only with ethanol, and treated as in the first group for taking the blood specimen.

calcium level in serum [5] = experiment: Serum calcium in patient with hyperparathyroidism accompanied by hypercalcemia (Example 6); format: in vivo, human; conditions: person seventeen, 10 µg/day oral
Excerpt: The thus prepared capsule composition was tentatively applied to the following two cases of human hyperparathyroidism accompanied by hypercalcemia:
To patient seventeen suffering from hyperparathyroidism accompanied by hypercalcemia, one of the capsule composition prepared as above containing 1 microgram of the active ingredient in one capsule was orally administered at a daily dose of 10 micrograms of 24R,25-(OH)2 -D3 for continuous 4 days.

## C=C1CC[C@H](O)C/C1=C/C=C1\CCC[C@]2(C)[C@@H]([C@H](C)CC[C@@H](O)C(C)(C)O)CC[C@@H]12 [24R,25-(OH)2 -D3]
Calcium level in serum [1]; after 10 hours
  Calcium level in serum: 11.5 ± 0.5 mg/dL
Calcium level in serum [1]; after 18 hours
  Calcium level in serum: 10.6 ± 0.4 mg/dL
thymus
  Number of thymocytes: (32 ± 5.5) × 10^7
  Weight ratio: thymus/body: 0.00101 ± 0.00011
[2]
  ulcer coefficient: 1.5 mm^2
[2]; vs control
  rate of ulcer healing: 80%
Calcium level in serum [3]; 100 µg/kg oral
  period for which the reduced calcium level was maintained: 12 h
Calcium level in serum [3]; 2 h after administration
  Calcium level in serum: 12.5 ± 0.4 mg/dL
Calcium level in serum [3]; 5 h after administration
  Calcium level in serum: 11.0 ± 0.5 mg/dL
Calcium level in serum [3]; 8 h after administration
  Calcium level in serum: 10.5 ± 0.5 mg/dL
Calcium level in serum [3]; 12 h after administration
  Calcium level in serum: 10.5 ± 0.4 mg/dL
Calcium level in serum [3]; 24 h after administration
  Calcium level in serum: 10.8 ± 0.3 mg/dL
Calcium level in serum [4]; after 2 hours
  Calcium level in serum: 12.5 ± 0.5 mg/dL
Calcium level in serum [4]; after 5 hours
  Calcium level in serum: 10.5 ± 0.5 mg/dL
Calcium level in serum [5]
  calcium level in serum after administration for 4 days: 10.8 mg/dL
